Source: patent publication US20220204540A1, “ESTERS OF NON- AROMATIC HETEROCYCLIC COMPOUNDS HAVING A NEMATOCIDAL ACTIVITY, THEIR AGRONOMIC COMPOSITIONS AND USE THEREOF” (ISAGRO S.p.A., priority 2019, published 2022)

Tested on: Meloidogyne sp.
Experiment: Nematocidal activity against Meloidogyne sp. on potted cucumber/tomato plants in greenhouse (soil treatment)
Type: in vivo
Conditions: for effectiveness with respect to the reference products (CR1, CR2), in words: Table 6, cucumber, 2 kg/hectare; for effectiveness with respect to the reference products (CR1, CR2), in words / FRESH WEIGHT OF PLANT: 30 days after transplantation; for GALL INDEX (scale 0-10) / FRESH WEIGHT OF PLANT: cucumber cv Chinese Long; for GALL INDEX (scale 0-10): dose applied 2 kg/hectare (2000 g/hectare), survey 30 days after transplantation, Bridge-Page scale, 0 = 0% of root affected, 10 = 100% infested root; for FRESH WEIGHT OF PLANT: dose applied 2 kg/hectare, healthy blank 23 g, infested blank 3.5 g
Description: sDetermination of the Nematocidal Activity Against Meloidogyne sp.
The tests aimed at testing the nematicidal activity of the product under examination were carried out using inoculae taken from a farming of Meloidogyne sp. maintained on potted tomato and cucumber plants and grown in greenhouses.
To carry out the experiments, portions of roots having a good number of galls and soil were taken from the infested pots, in which larvae were present starting from the second stage of age.
New pots having a diameter of 15 cm were half filled with sterile soil. The portions of infested roots, previously cleaned, were placed on the same in order to be able to correctly assess the degree of infestation and ensure that each pot contains the same nematic charge. 200-300 g of infested soil were subsequently added, then covered with a thin layer of sterile soil.
The treatment was carried out by pouring 100 ml of solution on the surface of the soil, in which the product to be tested was dissolved.
Tomato or cucumber seedlings at the stage of two or three true leaves were transplanted in the pots thus prepared, one or seven days after application. Different cultivars of tomato or cucumber were used, having a different sensitivity to the parasite and different growth times. In particular, a variety of ornamental tomatoes (cv Microtom), whose seedlings are small in size and are able to reach the ripeness of the fruit in pots and under greenhouse conditions in about two months, was used for assessing the final production.
The containment capacity of the parasite was detected, 30 and 60 days after transplantation, considering the development of the root system (where 100% is the development reached by the healthy comparative root), the fresh weight of the plants treated expressed in grams, and the presence of galls on the roots. The latter was estimated using the infestation scale proposed by Bridge-Page, according to which the value zero corresponds to 0% of the root affected and the value 10 corresponds to 100% of infested root.
Table 6 indicates the results relating to the effectiveness on cucumbers, cv Chinese Long, treating with Compounds Nr. 23, 620, 1, 13, 5, 15, 16, 624 and 625 included in general formula (I) and the reference compounds CR1=Fluensulfone and CR2, described in JP 2000038379, instead of the compound having general formula (I), at a dose of 2000 g/hectare and effecting the survey 30 days after transplantation.

| Compound | effectiveness with respect to the reference products (CR1, CR2), in words | GALL INDEX (scale 0-10) | FRESH WEIGHT OF PLANT [g] |
| --- | --- | --- | --- |
| O=C(OCCC(F)=C(F)F)[C@@H]1CCCN1C(=O)C(F)(F)F [Compound 625, N-trifluoroacetyl-L-proline 3,4,4-triflluorobut-3-en-1-yl ester] | comparable or greater effectiveness | 2.5 | 22 |
| O=S(=O)(CCC(F)=C(F)F)c1ncc(Cl)s1 [CR1, 5-chloro-2-(3,4,4-trifluoro-3-butenylsulfonyl)-thiazole, reference compound] |  | 2 | 5.5 |
| CC(=O)N1C(C(=O)OCCC(F)=C(F)F)COC1(C)C(F)(F)F (stereo not shown) [Compound 16, (N-acetyl-2-trifluoromethyl-2-methyl)-1,3-oxazolidine-4-carboxylate of 3,4,4-trifluoro-3-butenyl] | comparable or greater effectiveness | 2.9 | 18 |
| O=C(OCCC(F)=C(F)F)c1cccnc1 [CR2, pyridyl-3-carboxylate of 3,4,4-trifluoro-3-butenyl, reference compound] |  | 2.9 | 17.5 |
| CC(=O)N1CCC[C@H]1C(=O)OCCC(F)=C(F)F [Compound 624, N-acetyl-L-proline 3,4,4-trifluorobut-3-en-1-yl ester] | comparable or greater effectiveness | 1.5 | 21 |
| N-acetyl-1,3-thiadiazolidine-4-carboxylate of 3,4,4-trifluoro-3-butenyl [Compound 23] | comparable or greater effectiveness | 2 | 23 |
